# According to PubChem BioAssay AID248 (DTP/NCI, 2004):
# “And” between values parts separate entries of the source, which are not always exact repeats. Equal values may be shown once. Toxic doses and inconclusive results are not listed.
# Tested on: L1210 leukemia ip in BDF1 mice, survival T/C
# Experiment: NCI In Vivo Anticancer Drug Screen. Data for tumor model L1210 Leukemia (intraperitoneal) in B6D2F1 (BDF1) mice
# Details: endpoint: mean survival time, higher = longer survival
# Procedure, shortened: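 Tumor cells were implanted, animals were treated, and survival was followed. The result divides the treated measurement by the vehicle-control measurement.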
# [1] = dose: 100.0 mg/kg/injection, schedule: Q01DX009 (ip), vehicle: saline with Tween-80
# [2] = dose: 200.0 mg/kg/injection, schedule: Q01DX009 (ip), vehicle: saline with Tween-80
compound,measurement,setting,value
C1COC(N2CC3CCC(CC3)C2)=N1,T/C,"dose: 75.0 mg/kg/injection, schedule: Q01DX001 (ip), vehicle: saline",96 % of control
same,T/C,"dose: 150.0 mg/kg/injection, schedule: Q01DX001 (ip), vehicle: saline",105 % of control
Cc1ccc(Oc2ccc3cc[n+](C)cc3c2)cc1,T/C,"dose: 6.25 mg/kg/injection, schedule: Q04DX002 (ip), vehicle: DMSO",94 % of control
same,T/C,"dose: 12.5 mg/kg/injection, schedule: Q04DX002 (ip), vehicle: DMSO",105 % of control
same,T/C,"dose: 25.0 mg/kg/injection, schedule: Q04DX002 (ip), vehicle: DMSO",102 % of control
O=C(C[n+]1ccc2ccccc2c1)c1ccc2ccccc2c1,T/C,"dose: 6.25 mg/kg/injection, schedule: Q01DX009 (ip), vehicle: saline with Tween-80",95 % of control
same,T/C,"dose: 12.5 mg/kg/injection, schedule: Q01DX009 (ip), vehicle: saline with Tween-80",87 % of control
same,T/C,"dose: 25.0 mg/kg/injection, schedule: Q01DX009 (ip), vehicle: saline with Tween-80",90 % of control
CCOC(=O)C(C)NC(=O)C(C)NC(=O)OCc1ccccc1 (stereo not drawn),T/C,"dose: 100.0 mg/kg/injection, schedule: Q01DX009 (ip), vehicle: gum acacia",101 % of control
same,T/C,"dose: 100.0 mg/kg/injection, schedule: Q04DX003 (ip), vehicle: gum acacia",103 % of control
same,T/C,"dose: 200.0 mg/kg/injection, schedule: Q01DX009 (ip), vehicle: gum acacia",93 % of control
same,T/C,"dose: 200.0 mg/kg/injection, schedule: Q04DX003 (ip), vehicle: gum acacia",101 % of control
same,T/C,"dose: 400.0 mg/kg/injection, schedule: Q01DX009 (ip), vehicle: gum acacia",87 % of control
same,T/C,"dose: 400.0 mg/kg/injection, schedule: Q04DX003 (ip), vehicle: gum acacia",92 % of control
CCOP(=O)(CCl)NC12CC3CC(CC(C3)C1)C2 (stereo not drawn),T/C,"dose: 100.0 mg/kg/injection, schedule: Q04DX003 (ip), vehicle: Klucel (hydroxypropylcellulose) (HPC)",96 % of control
same,T/C,"dose: 200.0 mg/kg/injection, schedule: Q04DX003 (ip), vehicle: Klucel (hydroxypropylcellulose) (HPC)",100 % of control
CC(=N\N=C(N)N)/C(N=Nc1ccc(S(N)(=O)=O)cc1)=N\N=C(N)N,T/C,"dose: 15.0 mg/kg/injection, schedule: Q01DX Z (ip), vehicle: carboxymethylcellulose (CMC)",105 % of control
same,T/C,"dose: 30.0 mg/kg/injection, schedule: Q01DX Z (oral), vehicle: carboxymethylcellulose (CMC)",96 % of control and 102 % of control
same,T/C,"dose: 60.0 mg/kg/injection, schedule: Q01DX Z (ip), vehicle: carboxymethylcellulose (CMC)",160 % of control and 168 % of control and 184 % of control
same,T/C,"dose: 60.0 mg/kg/injection, schedule: Q01DX Z (oral), vehicle: carboxymethylcellulose (CMC)",109 % of control and 120 % of control
same,T/C,"dose: 120.0 mg/kg/injection, schedule: Q01DX Z (oral), vehicle: carboxymethylcellulose (CMC)",113 % of control
ClCN(CCl)CCl,T/C,"dose: 50.0 mg/kg/injection, schedule: Q01DX001 (ip), vehicle: carboxymethylcellulose (CMC)",102 % of control
same,T/C,"dose: 100.0 mg/kg/injection, schedule: Q01DX001 (ip), vehicle: carboxymethylcellulose (CMC)",94 % of control
same,T/C,"dose: 200.0 mg/kg/injection, schedule: Q01DX001 (ip), vehicle: carboxymethylcellulose (CMC)",105 % of control
O=C(Nc1cccc(C(=O)O)c1)Nc1ccc(Cl)c(C(F)(F)F)c1,T/C,[1],87 % of control
same,T/C,[2],100 % of control
C[n+]1c(/C=C/c2ccc(O)c3ccccc23)ccc2ccccc21,T/C,"dose: 75.0 mg/kg/injection, schedule: Q01DX001 (ip), vehicle: carboxymethylcellulose (CMC)",92 % of control
same,T/C,"dose: 150.0 mg/kg/injection, schedule: Q01DX001 (ip), vehicle: carboxymethylcellulose (CMC)",97 % of control
CCCCOB(OCCCC)OCCCC,T/C,"dose: 50.0 mg/kg/injection, schedule: Q01DX001 (ip), vehicle: saline",104 % of control
same,T/C,"dose: 100.0 mg/kg/injection, schedule: Q01DX001 (ip), vehicle: saline",95 % of control
same,T/C,"dose: 200.0 mg/kg/injection, schedule: Q01DX001 (ip), vehicle: saline",90 % of control
same,T/C,"dose: 400.0 mg/kg/injection, schedule: Q01DX001 (ip), vehicle: saline",106 % of control
Nc1ccn(CC(=O)N2CCOCC2)c(=O)n1,T/C,"dose: 25.0 mg/kg/injection, schedule: Q01DX009 (ip), vehicle: water",93 % of control
same,T/C,"dose: 50.0 mg/kg/injection, schedule: Q01DX009 (ip), vehicle: water",87 % of control
same,T/C,"dose: 100.0 mg/kg/injection, schedule: Q01DX009 (ip), vehicle: water",87 % of control
same,T/C,"dose: 200.0 mg/kg/injection, schedule: Q01DX009 (ip), vehicle: water",93 % of control
same,T/C,"dose: 400.0 mg/kg/injection, schedule: Q01DX009 (ip), vehicle: water",88 % of control
CC(=O)Nc1ccc(/C=C/C(=O)c2ccc(Cl)cc2)cc1,T/C,[1],102 % of control
same,T/C,"dose: 100.0 mg/kg/injection, schedule: Q04DX003 (ip), vehicle: saline with Tween-80",100 % of control
same,T/C,[2],89 % of control
same,T/C,"dose: 200.0 mg/kg/injection, schedule: Q04DX003 (ip), vehicle: saline with Tween-80",87 % of control
same,T/C,"dose: 400.0 mg/kg/injection, schedule: Q01DX009 (ip), vehicle: saline with Tween-80",91 % of control
same,T/C,"dose: 400.0 mg/kg/injection, schedule: Q04DX003 (ip), vehicle: saline with Tween-80",90 % of control
